The values below come from patent publication US10028961B2, “Therapeutically active compounds and their methods of use” (AGIOS PHARMACEUTICALS, INC., priority 2013, dated 2018).

The subject of assay [1] is U87MG pLVX-IDH2 R140Q-neo cells. The assay is described as follows: U87MG pLVX-IDH2 R140Q-neo cell based assay, 2-HG by LC-MS. As to conditions: Homo sapiens, U-87 MG.
Assay [2] deals with IDH1 wt/IDH1 R132H heterodimer (Homo sapiens (Human), UniProt O75874, R132H). The assay is described as follows: In vitro assay for IDH1m R132H inhibitors, IDH1 wt/IDH1 R132H heterodimer, NADPH depletion (diaphorase/resazurin). It counts as biochemical. The gist of the method:
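Purified IDH1wt-his/IDH1R132H-flag heterodimer (sf9 co-expression) pre-incubated 1 hr at room temperature with compound and NADPH before α-KG addition. Remaining NADPH read by diaphorase/resazurin conversion to fluorescent resorufin, 5 min at 25° C. Compounds diluted 1:50 from DMSO; IC50 determined.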

A further assay has as its target IDH2 R140Q (Homo sapiens (Human), UniProt P48735, R140Q). The assay can be described thus: In vitro assay for IDH2m R140Q inhibitors, cofactor depletion assay. The format is biochemical. To be noted: IDH2 R140Q enzyme. The procedure, abridged: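 Remaining cofactor measured fluorimetrically: diaphorase/resazurin Stop Mix […], halting the reaction. Before that, mutant enzyme and compound sat 1 h at RT, then substrate mix (4 μM NADPH, 1.6 mM α-KG) was added for 16 h at RT.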

Assay [3] deals with Neurosphere cells (TS603). The assay is described as follows: Cellular assay for IDH1m R132H inhibitors, 2-HG by LC-MS in neurosphere cells (TS603). It counts as cell-based. To be noted: 2-HG in media at 48 hours. The gist of the method: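 TS603 neurosphere cells in NeuroCult medium were dosed with compound (0.25% DMSO final) at 37 C, 5% CO2. After 48 hours, medium 2-HG was measured by LC-MS. At 72 hours, viability was read by CellTiter-Glo luminescence.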

Another assay relates to HT1080 cells. The assay can be described thus: Cellular assay for IDH1m R132C inhibitors, 2-HG by LC-MS in HT1080 cells. The format is cell-based. As to conditions: Homo sapiens, HT-1080. On the procedure: The following describes the experimental procedures that can be used to obtain data on column 5 of Table 4.
Cells (HT1080 or U87MG) are grown in T125 flasks in DMEM containing 10% FBS, 1× penicillin/streptomycin and 500 ug/mL G418 (present in U87MG cells only). They are harvested by trypsin and seeded into 96 well white bottom plates at a density of 5000 cell/well in 100 ul/well in DMEM with 10% FBS. No cells are placed in columns 1 and 12. Cells are incubated overnight at 37° C. in 5% CO2. The next day test compounds are made up at 2× the final concentration and 100 ul are added to each cell well. The final concentration of DMSO is 0.2% and the DMSO control wells are plated in row G. The plates are then placed in the incubator for 48 hours. At 48 hours, 100 ul of media is removed from each well and analyzed by LC-MS for 2-HG concentrations. The cell plate is placed back in the incubator for another 24 hours. At 72 hours post compound addition, 10 mL/plate of Promega Cell Titer Glo reagent is thawed and mixed. The cell plate is removed from the incubator and allowed to equilibrate to room temperature. Then 100 ul of Promega Cell Titer Glo reagent is added to each well of media. The cell plate is then placed on an orbital shaker for 10 minutes and then allowed to sit at room temperature for 20 minutes. The plate is then read for luminescence with an integration time of 500 ms.
HT1080 cells are maintained in RPMI containing 10% FBS, 1× penicillin/streptomycin. […] The next day compounds are prepared in 100% DMSO and then diluted in media for a final concentration of 0.2% DMSO. Media is removed from the cell plates and 200 μL of the compound dilutions are added to each well. […] The cell plates are then allowed to incubate another 24 hours.

Assay [4] concerns the target IDH1-R132H homodimer enzyme (Homo sapiens (Human), UniProt O75874, R132H). The assay is described as follows: In vitro assay IDH1-R132H homodimer, NADPH depletion assay with NADPH/NADP preincubation. To be noted: 5 μM NADPH and 37.5 μM NADP. It counts as biochemical. On the procedure: The following describes the experimental procedures that can be used to obtain data on columns 3 and 5 of Table 5.
A test compound is prepared as 10 mM stock in DMSO and diluted to 50× final concentration in DMSO, for a 50 μl reaction mixture. IDH enzyme activity converting alpha-ketoglutarate to 2-hydroxyglutaric acid is measured using a NADPH depletion assay. In the assay the remaining cofactor is measured at the end of the reaction with the addition of a catalytic excess of diaphorase and resazurin, to generate a fluorescent signal in proportion to the amount of NADPH remaining. […] The reaction is started with the addition of 10 μl of Substrate Mix ([…], 5 mM alpha-ketoglutarate, in Assay Buffer) and the mixture is incubated for 60 minutes at room temperature.

Setting [5] is: IDH1 wt/IDH1 R132H heterodimer, 300 μM NADP (saturated), read-out: IDH1 wt/R132H NADPH/NADP IC50 saturated.
Where [6] appears, read: IDH1 wt/R132H heterodimer, NADPH/NADP, not saturated, read-out: IDH1 wt/R132H NADPH/NADP IC50 not saturated.

Each structure is given as a SMILES string. Read-outs that look alike come from different tables or passages of the source.

Chain of IDH2 R140Q (P48735 40-452 R140Q): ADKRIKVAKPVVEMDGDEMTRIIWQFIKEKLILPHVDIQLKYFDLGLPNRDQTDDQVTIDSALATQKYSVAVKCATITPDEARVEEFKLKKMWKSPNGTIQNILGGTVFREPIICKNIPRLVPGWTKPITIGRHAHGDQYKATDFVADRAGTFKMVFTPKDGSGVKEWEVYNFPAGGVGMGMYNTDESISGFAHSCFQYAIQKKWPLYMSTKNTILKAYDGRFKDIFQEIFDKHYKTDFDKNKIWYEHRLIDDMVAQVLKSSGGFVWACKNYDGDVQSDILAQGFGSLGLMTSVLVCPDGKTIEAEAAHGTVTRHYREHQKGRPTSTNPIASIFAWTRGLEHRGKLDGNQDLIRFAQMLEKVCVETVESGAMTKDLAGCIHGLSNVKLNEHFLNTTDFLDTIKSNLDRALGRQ
Chain of IDH1-R132H homodimer enzyme (O75874 whole entry R132H): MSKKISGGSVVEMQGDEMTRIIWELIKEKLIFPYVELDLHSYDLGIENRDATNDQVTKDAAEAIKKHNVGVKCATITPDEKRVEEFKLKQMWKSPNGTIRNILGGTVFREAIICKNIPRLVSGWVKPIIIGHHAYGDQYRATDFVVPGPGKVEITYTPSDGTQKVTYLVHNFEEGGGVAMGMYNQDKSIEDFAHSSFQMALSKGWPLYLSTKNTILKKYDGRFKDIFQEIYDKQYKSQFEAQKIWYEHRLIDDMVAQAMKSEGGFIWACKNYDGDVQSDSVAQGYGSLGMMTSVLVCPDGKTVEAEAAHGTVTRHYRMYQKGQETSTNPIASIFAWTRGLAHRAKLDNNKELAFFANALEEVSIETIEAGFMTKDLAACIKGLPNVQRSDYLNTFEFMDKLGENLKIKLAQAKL
Chain of IDH1 wt/IDH1 R132H heterodimer (O75874 whole entry R132H): as above
Chain of IDH1 wt/IDH1 R132H heterodimer (O75874 whole entry, stated change not applied): as the sequence (O75874 whole entry R132H) above, with H132R counted along it

As to `FC(F)c1cncc(-c2nc(NC3CC(F)(F)C3)nc(NC3CC(F)(F)C3)n2)n1` [Compound 409], the IC50 (in assay [1]; in assay [2] (setting [5]); on IDH2 R140Q; in assay [3]; with HT1080 cells) was less than 50 nM in each case.

As to `C[C@@H](Nc1nc(Nc2ccnc(C3(C#N)CC3)c2)nc(-c2cncc(C(F)(F)F)n2)n1)C(F)(F)F` [Compound 377], the IC50 in assay [1] was less than 50 nM; in assay [2] (setting [5]) it was less than 50 nM; on IDH2 R140Q, less than 50 nM; in assay [3], less than 50 nM; in the assay with HT1080 cells it was 100 to 1000 nM.

Turning to `C[C@H](Nc1nc(N[C@@H](C)C(F)(F)F)nc(-c2cccc(Cl)n2)n1)C(F)(F)F` [Compound 142], the IC50 (in assay [1]; in assay [3]; in the assay on HT1080 cells) was less than 50 nM throughout.

In the case of `N#CC1(c2cc(Nc3nc(NC4CCC(F)(F)C4)nc(-n4ccc(C(F)(F)F)n4)n3)ccn2)CC1` (stereo not shown) [Compound 185], the IC50 (in assay [4]; in assay [1]; in assay [2] (setting [6]); on IDH2 R140Q; in assay [3]) was less than 50 nM each time.

Turning to `CC(F)(F)c1cccc(-c2nc(Nc3ccnc(C4(C#N)CC4)c3)nc(NC3CCC(F)(F)C3)n2)n1` (stereo not shown) [Compound 384], the IC50 in assay [1] is less than 50 nM; in assay [2] (setting [5]), less than 50 nM; against IDH2 R140Q it was less than 50 nM; in assay [3], less than 50 nM; with HT1080 cells, 100 to 1000 nM.

For `FC1(F)CC(Nc2nc(Nc3ccnc(C(F)(F)F)c3)nc(-c3cncc(C(F)(F)F)n3)n2)C1` [Compound 390], the IC50 in assay [1] is less than 50 nM; in assay [2] (setting [5]), 50 to 100 nM; against IDH2 R140Q, less than 50 nM; in assay [3] it was less than 50 nM; with HT1080 cells it was 100 to 1000 nM.

As to `FC(F)c1csc(-c2nc(NC3CCC(F)(F)C3)nc(NC3CCC(F)(F)C3)n2)n1` (stereo not shown) [Compound 402], the IC50 in assay [1] is less than 50 nM; in assay [2] (setting [5]), 50 to 100 nM; against IDH2 R140Q it was less than 50 nM; in assay [3], less than 50 nM; with HT1080 cells it was less than 50 nM.

Consider `FC(F)c1ccnc(-c2nc(NC3CCC(F)(F)CC3)nc(NC3CCC(F)(F)CC3)n2)n1` [Compound 308], for which the IC50 in assay [4] was more than 1000 nM; in assay [1] it was 100 to 1000 nM; in assay [2] (setting [6]) it was more than 1000 nM; against IDH2 R140Q it was 100 to 1000 nM; in assay [3], 100 to 1000 nM.

In the case of `FC1(F)CCC(Nc2nc(NC3Cc4cccnc4C3)nc(-c3cccc(C(F)(F)F)n3)n2)C1` (stereo not shown) [Compound 188], the IC50 (in assay [2] (setting [6]); in assay [3]; with HT1080 cells) was less than 50 nM in each case.

For `COc1ccc2c(c1)CC(Nc1nc(NC3CCC(F)(F)C3)nc(-c3cccc(C(F)(F)F)n3)n1)C2` (stereo not shown) [Compound 166], the IC50 in assay [2] (setting [6]) was less than 50 nM; in assay [3], less than 50 nM; with HT1080 cells it was 100 to 1000 nM.

In the case of `C[C@@H](Nc1nc(N[C@H](C)C2CC2)nc(-c2cc(F)ccc2F)n1)C1CC1` [Compound 292], the IC50 in assay [2] (setting [6]) is 100 to 1000 nM; in the assay on HT1080 cells it was more than 1000 nM.

In the case of `FC1(F)CC[C@@H](Nc2nc(Nc3ccnc(C(F)(F)F)c3)nc(-c3cccc(C(F)(F)F)n3)n2)C1` [Compound 172], the IC50 (in assay [4]; in assay [1]; in assay [2] (setting [6]); on IDH2 R140Q; in assay [3]) was less than 50 nM in each case.

For the compound `Fc1cc(F)cc(Nc2nc(N[C@H]3CCC(F)(F)C3)nc(-c3cncc(C(F)(F)F)n3)n2)c1` [Compound 368], the IC50 (in assay [4]; in assay [1]; in assay [2] (setting [5]); against IDH2 R140Q; in assay [3]) was less than 50 nM throughout.

For `C[C@H](Nc1nc(N[C@H](C)C(F)(F)F)nc(-c2cccc(Cl)n2)n1)C(F)(F)F` [Compound 136], the IC50 (in assay [1]; in assay [3]; with HT1080 cells) was less than 50 nM in each case.

As for `Fc1cc(F)cc(Nc2nc(NC3CC(F)(F)C3)nc(-c3cncc(Cl)n3)n2)c1` [Compound 120], the IC50 (in assay [4]; in assay [1]; in assay [2] (setting [6]); against IDH2 R140Q; in assay [3]) was less than 50 nM throughout.

For the compound `FC1(F)CCC(Nc2nc(NC3CCC(F)(F)CC3)nc(-c3nc(-c4ccccc4)ns3)n2)CC1` [Compound 333], the IC50 in assay [4] and in assay [2] (setting [6]) was more than 1000 nM throughout.

Regarding `FC(F)c1ccnc(-c2nc(NC3CCC(F)(F)C3)nc(NC3CCC(F)(F)C3)n2)n1` (stereo not shown) [Compound 412], the IC50 in assay [1] is 50 to 100 nM; in assay [2] (setting [5]), 100 to 1000 nM; in assay [3], less than 50 nM; in the assay on HT1080 cells, 100 to 1000 nM.

Turning to `COCCc1ccnc(-c2nc(NC3CCC(F)(F)CC3)nc(NC3CCC(F)(F)CC3)n2)n1` [Compound 315], the IC50 in assay [4] and in assay [2] (setting [6]) was more than 1000 nM throughout.

Consider `FC1(F)CCC(Nc2nc(NC3CCC(F)(F)C3)nc(-c3cccc(C4CC4)n3)n2)C1` (stereo not shown) [Compound 258], for which the IC50 in assay [1] was less than 50 nM; in assay [2] (setting [6]), 100 to 1000 nM; in the assay with HT1080 cells it was more than 1000 nM.

For the compound `FC1(F)CCC(Nc2nc(Nc3ccnc(C(F)(F)F)c3)nc(-n3ccc(C(F)(F)F)n3)n2)C1` (stereo not shown) [Compound 173], the IC50 (in assay [4]; in assay [1]; in assay [2] (setting [6]); at IDH2 R140Q; in assay [3]) was less than 50 nM in each case.

For the compound `C[C@@H](Nc1nc(N[C@H](C)C(F)(F)F)nc(-c2cccc(Cl)n2)n1)C(F)(F)F` [Compound 101], the IC50 (in assay [1]; in assay [3]; with HT1080 cells) was less than 50 nM in each case.

For `Cc1nc(-c2nc(NC3CCC(F)(F)C3)nc(NC3CCC(F)(F)C3)n2)c[nH]1` (stereo not shown) [Compound 319], the IC50 in assay [4] and in assay [2] (setting [6]) was more than 1000 nM throughout.

On to `CC(F)(F)c1nc(-c2nc(NC3CCC(F)(F)CC3)nc(NC3CCC(F)(F)CC3)n2)cs1` [Compound 283], for which the IC50 in assay [4] was more than 1000 nM; in assay [1] it was 100 to 1000 nM; in assay [2] (setting [6]) it was 100 to 1000 nM; on IDH2 R140Q, 100 to 1000 nM.

Regarding `CC(Nc1nc(Nc2ccnc(C(F)(F)F)c2)nc(-n2ccc(C(F)(F)F)n2)n1)C(F)(F)F` (stereo not shown) [Compound 177], the IC50 was 50 to 100 nM in assay [4]; less than 50 nM in assay [1]; less than 50 nM in assay [2] (setting [6]); less than 50 nM against IDH2 R140Q; less than 50 nM in assay [3].

Consider `Oc1ccc(F)c(-c2nc(NC3CCC(F)(F)CC3)nc(NC3CCC(F)(F)CC3)n2)n1` [Compound 309], for which the IC50 in assay [4] and in assay [2] (setting [6]) was more than 1000 nM each time.

For the compound `FC1(F)CCC(Nc2nc(NC3CCC(F)(F)C3)nc(-c3cncc(C(F)(F)F)n3)n2)C1` (stereo not shown) [Compound 138], the IC50 (in assay [4]; in assay [1]; in assay [2] (setting [6]); against IDH2 R140Q; in assay [3]) was less than 50 nM throughout.

For `CC(Nc1nc(NC(C)C(F)(F)F)nc(-c2cccc(Cl)n2)n1)C(F)(F)F` (stereo not shown) [Compound 130], the IC50 (in assay [1]; with HT1080 cells) was less than 50 nM throughout.
